Assay results taken from patent US20120309734A1, “COMBRETASTATIN DERIVATIVES AND USES THEREFOR” (priority 2009, published 2012).

Assays:
[1] = tested on: primary CML cells (BCR-ABL-positive); experiment: Apoptosis in ex vivo CML cells, annexin V staining; assay type: cell-based, human; details: 72 h
From the text: This study is the first pre-clinical evaluation of combretastatins in the treatment of chemotherapy naive and patients with acquired imatinib mesylate resistance (refractory or relapsed disease despite adequate dose and duration). Imatinib mesylate is the first line treatment in BCR-ABL-positive CML chemotherapy. BCR-ABL, a constitutively active protein tyrosine kinase is a product of the Philadelphia chromosome (Ph) translocation t(9;22) and plays a central role in the pathogenesis of CML. […] All cells were treated with a clinically achievable concentration of imatinib mesylate (indicated as STI in FIG. 3) [250 nM]. […] The percentage apoptosis was determined by flow cytometric analysis of annexin-V stained cells.
The percentage of apoptosis in ex-vivo CML cells was determined by annexin V staining. […] Cells were collected by centrifugation at 400×g for 5 min and resuspended in anti-CD-45 diluted 1:50 in RPMI medium. Following a 10 min incubation in the dark at room temperature, cells were centrifuged and washed in Annexin binding buffer (Biosource, Nivelles, Belgium). Cells were again centrifuged and resuspended in Annexin-V-FITC (IQ products, Netherlands) diluted in Annexin binding buffer (1:50). Samples were next incubated in the dark on ice for 15 min. Annexin binding buffer (1 ml) was added to each sample. Samples were collected by centrifugation and resuspended in 0.5 ml of Annexin binding buffer. Cells were read immediately by flow cytometry and analysed by Cellquest software. CML cells were selected and gated based on their low to medium side scatter and low CD45 expression.

[2] = tested on: primary endothelial cell (HUVEC); experiment: Endothelial cell proliferation, AlamarBlue; assay type: cell-based; details: Homo sapiens, 72 h, read-out: IC50, proliferation of HUVECs
Protocol: A range of concentrations of cis β-lactam 4, were tested on primary endothelial cell (HUVEC) proliferation. HUVEC cells (20,000 cells/well) were seeded onto 96-well plates for 24 h and treated in triplicate with vehicle alone (1% (v/v) ethanol) or a range of concentrations of compound 4 for 72 h. The cells were then incubated in 10% (v/v) AlamarBlue and its reduction to a fluorescent state measured at excitation 544 nm and emission 590 nm using a multi-well fluorimeter. The results were expressed as the percentage cell proliferation relative to vehicle-treated control cells (100%). Values represent the mean±the S.E.M for three separate experiments. IC50 values were obtained using Prism GraphPad 4.
Pooled primary human umbilical vein endothelial cells (HUVECs) and their associated reagents were all obtained from Cascade Biologics, Invitrogen, Carlsbad, Calif., USA. HUVECs were maintained between passages 1-4 in Medium 200 supplemented with LSGS (low serum growth factor supplement) and utilised for experiments at passage 4.

[3] = tested on: A2780-parental; experiment: Alamar Blue cell viability assay; assay type: cell-based; details: 72 h
Protocol: (§1) Cells were exposed to multiple concentrations of the indicated compound for 72 h. Cell viability was assessed using the Alamar blue assay and respective IC50 values were calculated. The resistance factor (RF) was calculated by dividing the IC50 of the resistant cell line/IC50 of the parental cell line.
(§2) A2780-parental and A2780-ADR resistant cells were provided by the Beatson Institute of Cancer Research, Glasgow. […] All cells were cultured in RPMI-1640 Glutamax medium supplemented with 10% FCS media, 100 units/ml penicillin and 100 μg/mIstreptomycin. Cells were maintained at 37° C. in 5% CO2 in a humidified incubator.
(§3) The reduction of Alamar Blue is proportional to the number of viable cells. Cells (200 μl) were plated in triplicate in a 96-well plates (K562, 100,000/ml; HL-60, 300,000/ml; A-2780 50,000/ml). A-2780 cells were plated 24 h prior to treatment. Suspension cells were plated in the log phase of growth and treated immediately. The cells were then treated with either medium alone, vehicle (1% ethanol v/v or 0.1% DMSO v/v) or with a range of concentrations of drug [0.001-10 μM]. After 72 h, Alamar Blue was added to each well (10% of final volume) and fluorescence was read using a 96-well fluorometer with excitation at 530 nm and emission of 590 nm. The blank solution consisted of medium and Alamar Blue and the blank solution was used to calibrate the spectrophotometer to zero absorbance. The relative cell viability (%) related to control wells and was calculated by [A]test/[A]control×100 where [A]test is the absorbance of the drug treated cells and [A]control the absorbance of the vehicle control treated cells. Dose response curves were plotted and IC50 values (concentration of drug resulting in 50% reduction in cell survival) were obtained using the commercial software package Prism (GraphPad Software, Inc., La Jolla, USA). Experiments were performed in triplicate on at least three separate occasions.

[4] = tested on: HUVECs; experiment: VEGF-stimulated transwell migration assay; assay type: cell-based; details: Homo sapiens, HUVEC; 50 nM, 6 h, 10 ng/ml VEGF
Protocol: This modified transwell migration assay consisted of an upper and a lower chamber separated by a membrane. Migration of HUVECs from the upper to the lower chamber was stimulated by addition of VEGF to the lower chamber. The effect of compound 4 on this migration was determined by its addition along with VEGF into the lower chamber. Migration was expressed as a percentage of migration in control chambers treated with the vehicle (100%). HUVECs 10,000 cells in […] medium were seeded onto fibronectin-coated […] transwell inserts in 24-well plates containing medium. HUVEC migration was stimulated by the addition of 10 ng/ml VEGF to the lower wells. Vehicle (0.5% (v/v) ethanol) or compound 4 (50 nM) were also added to the lower wells. After 6 h, the upper surfaces of the inserts were swabbed to remove non-migrated cells. Filters containing the migrated cells were stained with 0.5% toulidine blue 0 and 0.5% sodium tetraborate. The cells were solubilised in 0.2% (w/v) SDS in 20 mM Tris-HCl, pH 7.7 and staining quantified as absorbance at 650 nm. […] P-values were determined using a two-tailed Student's paired t-test. A value of P<0.05 was considered to be significant.

[5] = tested on: HL-60-BCRP; experiment: Alamar Blue cell viability assay
Protocol: (§4) Three drug resistant cell lines and respective parental cell lines were assessed. […] Western blot analysis confirmed the overexpression of p-glycoprotein and BCRP in respective cell lines.
as §1
(§5) All cells were cultured in RPMI-1640 Glutamax medium supplemented with 10% FCS media, 100 units/ml penicillin and 100 μg/mIstreptomycin. Cells were maintained at 37° C. in 5% CO2 in a humidified incubator.
as §3

[6] = tested on: HL-60 parental; experiment: Alamar Blue cell viability assay; assay type: cell-based; details: Homo sapiens, 72 h
Protocol: as §1, §2, §3

[7] = tested on: breast carcinoma MDA-MB-231 cells; experiment: Transwell migration assay; assay type: cell-based, human; details: 50 nM, 6 h
Protocol: FIG. 12 illustrates the migration of breast carcinoma MDA-MB-231 cells across transwell filters in the presence of vehicle (0.5% (v/v) ethanol) or 50 nM compound 4. Migration was expressed as a percentage of migration of vehicle-treated cells (100%). MDA-MB-231 cells (cultured as described supra) were seeded at a density of 2.5×10^4 cells/well onto 24-well Falcon migration inserts (8 μm pore size) in serum-free medium. Inserts were placed into Falcon companion plates containing 20% FBS and either vehicle (0.5% (v/v) ethanol) or 50 nM compound 4 and incubated for 6 h. The upper surfaces of the inserts were swabbed to remove non-migrated cells. Migrated cells on the underside of the membrane were fixed in methanol, stained with Mayers Hematoxylin, dehydrated in methanol and mounted on a glass slide. The number of cells in 5 fields at 10× magnification was counted. […] P-values were determined using a two-tailed Student's paired t-test. A value of P<0.05 was considered to be significant. Incubation for 6 h with compound 4 prevented MDA-MB-231 cell migration by 95.7% (***P<0.0001).

[8] = biological target: T1, p-glycoprotein (Homo sapiens, UniProt P08183); experiment: Anti-proliferative effects in multi-drug resistant cells, conclusion on efflux; assay type: cell-based; details: concluded from resistance factors
T1 construct: HL-60-MDR (overexpress p-glycoprotein); endogenous in cells; host or cells: HL-60-MDR, A2780-ADR
Protocol: as §4, §1

[9] = tested on: SNB-75; experiment: NCI60 cell line screen; assay type: cell-based; details: Homo sapiens, CNS
[10] = tested on: HL-60-MDR(PGP); experiment: Alamar Blue cell viability assay; assay type: cell-based, human
Protocol: as §4, §1, §5, §3

[11] = tested on: A2780-ADR (PGP); experiment: Alamar Blue cell viability assay
Protocol: as §4, §1, §5, §3

[12] = tested on: MOLT-4; experiment: NCI60 cell line screen; details: Homo sapiens

T1 sequence (P08183 whole entry): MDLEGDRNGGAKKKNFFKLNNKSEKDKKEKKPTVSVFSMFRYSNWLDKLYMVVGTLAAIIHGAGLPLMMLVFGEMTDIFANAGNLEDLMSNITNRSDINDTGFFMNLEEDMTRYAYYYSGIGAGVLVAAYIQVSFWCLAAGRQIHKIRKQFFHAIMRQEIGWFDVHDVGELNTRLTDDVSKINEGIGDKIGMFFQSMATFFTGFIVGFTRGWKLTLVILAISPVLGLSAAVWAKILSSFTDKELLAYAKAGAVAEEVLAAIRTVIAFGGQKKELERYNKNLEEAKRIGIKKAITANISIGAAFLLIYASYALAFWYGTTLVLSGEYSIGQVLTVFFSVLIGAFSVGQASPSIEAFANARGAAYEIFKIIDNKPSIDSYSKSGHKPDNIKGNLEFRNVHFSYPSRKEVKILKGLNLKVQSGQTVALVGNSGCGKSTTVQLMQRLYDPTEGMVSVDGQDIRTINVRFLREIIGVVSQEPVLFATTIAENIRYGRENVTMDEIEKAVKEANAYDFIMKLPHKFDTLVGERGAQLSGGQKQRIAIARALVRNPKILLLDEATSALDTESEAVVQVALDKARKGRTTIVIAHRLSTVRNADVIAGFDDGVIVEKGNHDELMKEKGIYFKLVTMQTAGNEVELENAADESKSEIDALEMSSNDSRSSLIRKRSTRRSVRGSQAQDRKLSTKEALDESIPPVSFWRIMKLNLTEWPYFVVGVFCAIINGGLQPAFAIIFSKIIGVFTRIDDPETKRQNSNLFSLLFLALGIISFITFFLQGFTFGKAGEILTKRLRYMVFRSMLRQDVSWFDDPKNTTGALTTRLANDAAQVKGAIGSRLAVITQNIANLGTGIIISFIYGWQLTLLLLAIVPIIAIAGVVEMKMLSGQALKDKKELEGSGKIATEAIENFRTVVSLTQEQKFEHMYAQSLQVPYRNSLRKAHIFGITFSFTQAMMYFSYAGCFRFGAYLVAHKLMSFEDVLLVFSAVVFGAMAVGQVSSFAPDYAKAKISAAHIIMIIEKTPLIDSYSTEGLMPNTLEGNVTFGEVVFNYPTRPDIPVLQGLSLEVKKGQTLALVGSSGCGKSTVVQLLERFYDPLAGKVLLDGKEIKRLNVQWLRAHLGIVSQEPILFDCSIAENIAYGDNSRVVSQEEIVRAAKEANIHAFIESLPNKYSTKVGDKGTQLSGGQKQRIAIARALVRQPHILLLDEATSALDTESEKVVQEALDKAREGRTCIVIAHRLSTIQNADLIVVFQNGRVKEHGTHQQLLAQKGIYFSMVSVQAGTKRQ

In the case of `COc1ccc(C2C(c3ccccc3)C(=O)N2c2cc(OC)c(OC)c(OC)c2)cc1O` (stereo not shown) [Compound 4, 4-(3-Hydroxy-4-methoxyphenyl)-3-phenyl-1-(3,4,5-trimethoxyphenyl)-azetidin-2-one], the “apoptosis induction compared with imatinib mesylate” value ([1]; 250 nM each, patient samples) is reported as “more effective inducers of apoptosis than imatinib mesylate”, the “apoptosis in primary CML cells” value ([1]; 250 nM, chemotherapy naïve (4 samples) and imatinib mesylate resistant (2 samples)) is reported as “induced apoptosis” and the IC50 [2] is reported as 4 nM. The IC50 [3] was 23.3 nM, the inhibition at 0.05 µM [4] was 74% and the IC50 ([5]; Homo sapiens, 72 h) was 25.3 nM. For the same molecule, the RF ([5]; IC50 HL-60-BCRP / IC50 HL-60 parental) was 1.4, the IC50 [6] was 17.7 nM and the “prevention of MDA-MB-231 cell migration” value [7] was 95.7%. For the same molecule, the “substrate for the p-glycoprotein” value [8] was “poor substrates for the p-glycoprotein”, the GI50 [9] was 47 nM and the IC50 ([10]; Homo sapiens, HL60/MDR, HL-60-MDR(PGP), 72 h, Alamar blue, read-out: IC50) was 18.2 nM. It also gave an RF ([10]; IC50 HL-60-MDR(PGP) / IC50 HL-60 parental) of 1.03, an IC50 ([11]; A2780 ADR, 72 h) of 10.4 nM and an RF ([11]; IC50 A2780-ADR (PGP) / IC50 A2780-parental) of 0.5.

With `COc1ccc(C2C(c3ccccc3)C(=O)N2c2cc(OC)c(OC)c(OC)c2)cc1` (stereo not shown) [Compound 8, 4-(4-Methoxy-phenyl)-3-phenyl-1-(3,4,5-trimethoxy-phenyl)-azetidin-2-one] the GI50 [12] was 31.6 nM.
